Data published in PMC9763021, “Comprehensive Assessment of Biomolecular Interactions of Morpholine-Based Mixed Ligand Cu(II) and Zn(II) Complexes of 2,2′-Bipyridine as Potential Anticancer and SARS-CoV-2 Agents: A Synergistic Experimental and Structure-Based Virtual Screening” (Bioinorganic Chemistry and Applications, 2022).

Legend:
Pseudomonas aeruginosa = assay: Agar disc diffusion, strain D; assay type: cell-based; parameters: (inhibition %): concentration or dose not given beside the values
Procedure: (§1) In-vitro antimicrobial properties were evaluated for all samples by the agar disc diffusion method towards different fungal and bacterial strains. Additionally, the reported inhibition zone values were comparatively analyzed with the standard antifungal drugs ketoconazole and amphotericin B as well as the standard antibiotic medications streptomycin and amikacin.
(§2) The current research has a curious focus on the in vitro antimicrobial properties of biological systems because these studies are crucial for developing effective antibacterial and antifungal medications. […] It can also be spelled out based on the chelation theory proposed by Overtone and Tweedy. Chelation theory points out that the partial exchanging of the positive charge of the metal center with donor moieties, and overlap of the ligand orbitals will reduce the greater degree of the metal ion's polarity, which ultimately rises the delocalization of π and d electrons over the full chelated ring system. By raising the size of the metal ion due to the retarding of polarization, chelation may also enhance the complexes' lipophilic characteristics, which further stimulate the lipid membrane permeability and break down the bacteria' enzymes responsible for cell wall formation, therefore slowing down the regular cell processes. By preventing the production of cell walls/proteins/DNA, including by obstructing folate metabolism and the cytoplasmic membrane, antimicrobial drugs frequently either fully eliminate microbes or only prevent their cell growth. Additionally, the samples' mode of action may be employed in disrupting the cell's respiration process by forming an H-bond during the morpholine-fused iminic group coordinated with the active metal center of its components, inhibiting proliferation of the cell. […] The difference in the antimicrobial efficacy of some of the compounds towards various microorganisms influences on the impermeability of the cells of the germs or the diversity of ribosomes of the microbes. The % of the inhibition of all substances is estimated from (45) (Table 9).
(§3) (A, B, C, D, and E are represented as gram negative bacteria species Escherichia coli, Salmonella enteric serovar typhi, Salmonella enteric serovar typhi, Pseudomonas aeruginosa, and Shigella flexneri, respectively. F & G are denoted as gram positive bacteria species Staphylococcus aureus and Bacillus cereus. H, I, and J are represented as fungal strains Aspergillus niger, Candida albicans, and Mucor indicus. Standard drugs for bacterial strains: Amikacin & Streptomycin Standard drugs for fungal strains: Ketoconazole and Amphotericin B. [Control (DMSO) = 6 mm].(44) Inhibition %=T–C/T×100, where T and C are represented as the diameter of microbial growth of the sample plates and the control plate (6 mm), respectively. Error limits ±2.5–5.0% (P ≤ 0.05).

Escherichia coli = assay: Agar disc diffusion, strain A; assay type: cell-based; parameters: (inhibition %): concentration or dose not given beside the values
Procedure: as §1, §2, §3

Bacillus cereus = assay: Agar disc diffusion, strain G; assay type: cell-based; parameters: (inhibition %): concentration or dose not given beside the values
Procedure: as §1, §2, §3

[1] = tested on: Salmonella enteric serovar typhi; assay: Agar disc diffusion, strain B; assay type: cell-based
Procedure: as §1, §2, §3

[2] = tested on: Salmonella enteric serovar typhi; assay: Agar disc diffusion, strain C; assay type: cell-based
Procedure: as §1, §2, §3

Staphylococcus aureus = assay: Agar disc diffusion, strain F; assay type: cell-based; parameters: (inhibition %): concentration or dose not given beside the values
Procedure: as §1, §2, §3

Shigella flexneri = assay: Agar disc diffusion, strain E; assay type: cell-based; parameters: (inhibition %): concentration or dose not given beside the values
Procedure: as §1, §2, §3

[3] = tested on: NHDF normal human dermal fibroblasts cell line; assay: MTT cell viability assay, NHDF; assay type: cell-based; settings: 72 hours exposure, normal cells
Procedure: (§4) All substances towards the A549, HepG2, MCF-7, and NHDF cell lines were evaluated by using the MTT approach. The collected data were utilized to compute the IC50 value and contrast it with the gold standard cisplatin anticancer medication.
(§5) Cellular viability or metabolic properties can be measured using the MTT assay, which is a powerful and credible method for anticancer properties. The anticancer efficacy of all test compounds was investigated by the MTT assay against A549, HepG2, MCF-7, and NHDF cell lines. As per the colorimetric approach, the IC50 findings of all test substances were evaluated as the % of cell viability/growth inhibition. […] Nevertheless, complex (1a) has the highest cytotoxic potential among others. The acquired findings were in the subsequent sequence as follows: (cisplatin) > (1a) > (2a) > (HL) (Figure 16 and Table 10). The cytotoxic effectiveness is dependent upon the DNA-binding modalities, the structure-activity relationship, as well as drug concentrations and incubation period exposure. […] As per Tweedy's chelation theory, charge equilibration happens as a result of coordination between the ligands and metal ions, which minimises the polarity of the metal ions and causes the capability of the test complexes to pass via the cell membrane lipid layer. Thus, it put off the synthesis of cell wall/protein/nucleic acids. Additionally, the results of DNA-binding tests using these complexes, including gel electrophoresis, UV-visible spectral titration, hydrodynamic, emission, and CV findings, were in good agreement with the findings of cytotoxicity. The expressions (46) and (47) were supported to measure the % of growth inhibition and cell viability. […]
(§6) A549, HepG2 MCF-7, and NHDF are represented as human lung cancer cell line, liver cancer cell line, breast cancer cell line, and normal human dermal fibroblasts cell line.(45) % Cytotoxiciy=1− Mean absorbance of Sample at 595 nm/Mean absorbance of Controlat 595 nm ×100, (46) Cellviability%=100−Cytotoxiciy%.

[4] = tested on: MCF-7 breast cancer cell line; assay: MTT cell viability assay, MCF-7; assay type: cell-based, human; settings: 72 hours exposure
Procedure: as §4, §5, §6

[5] = tested on: HepG2 liver cancer cell line; assay: MTT cell viability assay, HepG2; assay type: cell-based, human; settings: 72 hours exposure
Procedure: as §4, §5, §6

[6] = tested on: A549 human lung cancer cell line; assay: MTT cell viability assay, A549; assay type: cell-based; settings: 72 hours exposure
Procedure: as §4, §5, §6

With NCC[C@H](O)C(=O)N[C@@H]1C[C@H](N)[C@@H](O[C@H]2O[C@H](CN)[C@@H](O)[C@H](O)[C@H]2O)[C@H](O)[C@H]1O[C@H]1O[C@H](CO)[C@@H](O)[C@H](N)[C@H]1O [Amikacin, reference compound] the “(inhibition %)” value (Pseudomonas aeruginosa) was 70%, the “diameter of the clear zone inhibition” value (Pseudomonas aeruginosa; control = 6 mm) was 20 mm and the “(inhibition %)” value (Escherichia coli; (T–C)/T×100) was 73%. The “diameter of the clear zone inhibition” value (Escherichia coli; control (DMSO) = 6 mm) was 22 mm, the “(inhibition %)” value (Bacillus cereus) was 70% and the “diameter of the clear zone inhibition” value (Bacillus cereus; control = 6 mm) was 20 mm. The “(inhibition %)” value [1] was 73%, the “diameter of the clear zone inhibition” value ([1]; control = 6 mm) was 22 mm and the “(inhibition %)” value [2] was 75%. The “diameter of the clear zone inhibition” value ([2]; control = 6 mm) was 24 mm, the “(inhibition %)” value (Staphylococcus aureus) was 70% and the “diameter of the clear zone inhibition” value (Staphylococcus aureus; control = 6 mm) was 20 mm. For the same compound, the “(inhibition %)” value (Shigella flexneri) was 70% and the “diameter of the clear zone inhibition” value (Shigella flexneri; control = 6 mm) was 20 mm.
N.N.[Cl][Pt][Cl] [Cisplatin, reference compound] was tested, and the IC50 [3] was 26.9 ± 1.3 µM, the IC50 [4] was 20.2 ± 1 µM and the IC50 [5] was 22.9 ± 1.1 µM. The IC50 [6] was 31.9 ± 1.6 µM.
